Results from PMC9189845, “Structure–Activity Relationships of 8-Hydroxyquinoline-Derived Mannich Bases with Tertiary Amines Targeting Multidrug-Resistant Cancer” (Journal of Medicinal Chemistry, 2022).
Like-named read-outs stand apart in the source and are kept apart here.

Legend:
[1] = tested on: MES-SA/Dx5 cells; experiment: PrestoBlue viability assay, MES-SA/Dx5 cells (MDR, P-gp positive); conditions: for pIC50 value MES-SA/Dx5: MES-SA/Dx5 cells, without TQ; for SR_TQ: selectivity ratio MES-SA vs MES-SA/Dx5, with TQ; for SR: selectivity ratio MES-SA vs MES-SA/Dx5, without TQ
[2] = tested on: MES-SA cells; experiment: PrestoBlue viability assay, MES-SA cells; conditions: for pIC50 value MES-SA: MES-SA cells, without TQ
[3] = read-out: IC50 / μM MES-SA/Dx5, absence of TQ, 72 h incubation
[4] = read-out: IC50 / μM MES-SA, absence of TQ, 72 h incubation
[5] = Homo sapiens, MES-SA/Dx5, 72 h, read-out: IC50 / μM MES-SA/Dx5, absence of TQ, 72 h incubation
[6] = Homo sapiens, MES-SA/Dx5, read-out: pIC50 value MES-SA/Dx5, MES-SA/Dx5 cells, without TQ (converted)
[7] = Homo sapiens, MES-SA, 72 h, read-out: IC50 / μM MES-SA, absence of TQ, 72 h incubation
[8] = Homo sapiens, MES-SA, read-out: pIC50 value MES-SA, MES-SA cells, without TQ (converted)
[9] = Homo sapiens, MES-SA/Dx5, read-out: pIC50 value MES-SA/Dx5 + TQ, MES-SA/Dx5 cells, with TQ (converted)
[10] = Homo sapiens, MES-SA, read-out: pIC50 value MES-SA+TQ, MES-SA cells, with TQ (converted)

Structure (SMILES)	pIC50 value MES-SA/Dx5 [1]	IC50 [1, 3]	SR_TQ [1]	SR [1]	pIC50 value MES-SA [2]	IC50 [2, 4]	IC50 [1, 5]	IC50 [1, 6]	IC50 [2, 7]	IC50 [2, 8]	IC50 [1, 9]	IC50 [2, 10]
Oc1c(C(c2ccc(F)cc2)N2CCOCC2)ccc2cccnc12 (stereo not shown) [Compound 106]	4.86	14.9 ± 6.17 µM	1.15	2.24	4.51	33.4 ± 13.2 µM						
COc1ccc(C(c2ccc3cccnc3c2O)N2CCOCC2)cc1 (stereo not shown) [Compound 107]	4.81	15.8 ± 2.97 µM		1.29	4.69	20.3 ± 1.7 µM						
Oc1c(C(c2cccnc2)N2CCOCC2)cc(Cl)c2cccnc12 (stereo not shown) [Compound 109]				1.55			32.9 ± 7.06 µM	32.4 µM	51 ± 2.48 µM	51.3 µM		
Oc1c(C(c2cccs2)N2CCOCC2)cc(Cl)c2cccnc12 (stereo not shown) [Compound 110]				0.57			14 ± 0.42 µM	13.8 µM	7.97 ± 1.01 µM	7.94 µM		
CN1CCN(C(c2cccnc2)c2ccc3cccnc3c2O)CC1 (stereo not shown) [Compound 111]				1.53			35.9 ± 4.93 µM	35.5 µM	54.8 ± 3.66 µM	55 µM		
CN1CCN(C(c2ccncc2)c2ccc3cccnc3c2O)CC1 (stereo not shown) [Compound 112]			1.58	2.02			11 ± 2.12 µM	10.7 µM	22.1 ± 2.7 µM	21.9 µM	20.4 µM	32.4 µM
CN1CCN(C(c2cccs2)c2ccc3cccnc3c2O)CC1 (stereo not shown) [Compound 113]				0.76			16.79 ± 0.08 µM	16.6 µM	12.8 ± 1.72 µM	12.6 µM		
CCN1CCN(C(c2cccnc2)c2ccc3cccnc3c2O)CC1 (stereo not shown) [Compound 115]			1.05	1.99			10.3 ± 3.54 µM	9.77 µM	20.6 ± 1.85 µM	20.4 µM	22.9 µM	24 µM
CCN1CCN(C(c2cccs2)c2ccc3cccnc3c2O)CC1 (stereo not shown) [Compound 116]				0.64			14.2 ± 1.36 µM	14.1 µM	9.06 ± 0.23 µM	9.12 µM		
CCN1CCN(C(c2ccccn2)c2cc(Cl)c3cccnc3c2O)CC1 (stereo not shown) [Compound 117]				1.16			24.4 ± 3.58 µM	24 µM	28.3 ± 2.32 µM	28.2 µM		
CCN1CCN(C(c2cccnc2)c2cc(Cl)c3cccnc3c2O)CC1 (stereo not shown) [Compound 118]				0.92			23.1 ± 4.67 µM	22.4 µM	21.4 ± 0.84 µM	21.4 µM		
OCCN1CCN(C(c2ccccc2)c2ccc3cccnc3c2O)CC1 (stereo not shown) [Compound 119]	4.88	13.5 ± 2.55 µM	1.7	1.53	4.69	20.7 ± 0.97 µM						
Oc1c(C(c2ccccn2)N2CCN(c3ccccn3)CC2)ccc2cccnc12 (stereo not shown) [Compound 121]	4.65	22.6 ± 2.85 µM		1.81	4.39	40.9 ± 2.86 µM						
